Test results: US5137811A, “Method for diagnosing periodontal diseases with a substrate specific for aminopeptidase activity of periodontopathic bacteria” (Sunstar Kabushiki Kaisha, priority 1986, dated 1992)
Where a SMILES comes first, the peptide text is derived from it. The star is where a group is joined. βNA = c1ccc2cc(N*)ccc2c1; Cbz = O=C(OCc1ccccc1)*

Key:
[1] = tested on: Actinobacillus actinomycetemcomitans; assay: Hydrolytic activity of cell suspension on aminopeptidase substrates (Experiment 2); format: cell-based; settings: four strains, Table 2
Procedure, shortened: (§1)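 Cell suspensions (A660 = 1.0; Treponema grown 7 days in TYGVS, others 48–72 h in BHI, 37 °C) were incubated with 0.2 mM β-naphthylamide substrates in 0.1 M Tris-HCl pH 7.0 for 60 min at 37 °C. Released β-naphthylamine detected with Garnet GBC at 525 nm and scored from strain averages.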

Actinomyces israelli [2] = assay: as above; format: cell-based; settings: two strains, Table 2
Procedure, shortened: as §1

B. corporis = assay: as above; format: cell-based; settings: Table 2
Procedure, shortened: as §1

B. denticola = assay: as above; format: cell-based; settings: Table 2
Procedure, shortened: as §1

B. gingivalis [3] = assay: as above; format: cell-based; settings: five strains, Table 2
Procedure, shortened: as §1

B. intermedius = assay: as above; format: cell-based; settings: three strains, Table 2
Procedure, shortened: as §1

B. melaninogenicus = assay: as above; format: cell-based; settings: two strains, Table 2
Procedure, shortened: as §1

Fusobacterium nucleatum [4] = assay: as above; format: cell-based; settings: three strains, Table 2
Procedure, shortened: as §1

Treponema denticola [5] = assay: as above; format: cell-based; settings: four strains, Table 2
Procedure, shortened: as §1

[6] = tested on: Actinobacillus actinomycetemcomitans; assay: Hydrolytic activity of cell suspension, substrates alone or in combination (Experiment 3); format: cell-based; settings: four strains, Table 3
Experimental: (§2) The strains of Treponema were anaerobically cultivated using TYGVS media at 37° C. for 7 days, while other bacterial strains were cultivated using brain heart infusion broth at 37° C. for 48 to 72 hours. Each culture was diluted to obtain a bacterial cell suspension, the absorption at 660 nm of which was 1.0.
(§3) Substrate compounds for aminopeptidase enzyme having various color developing groups derived from β-naphthylamine were dissolved in 0.1M Tris-HCl buffer (pH 7.0) at the concentration of 0.2 mM to obtain substrate solutions.
(§4) To the substrate solution (1.5 ml) was added the above cell suspension (0.3 ml) and reacted at 37° C. for 60 minutes. After completion of the reaction, a coloring reagent [prepared by dissolving diazonium salt of Garnet GBC in 1M acetate buffer (containing 10% Tween 20, pH: 4.2) at the concentration of 0.5 mg/ml] was added and, after 15 minutes, the absorption at 525 nm was determined with a spectrophotometer.
(§5) On the basis of the average amount of released β-naphthylamine in each strain, the hydrolytic activity was expressed as follows: […]
(§6) According to the same manner as described in Experiment 1, periodontopathic bacteria specific aminopeptidase activity was tested by using four strains of Treponema denticola, five strains of B. gingivalis, four strains of Actinobacillus actinomycetemcomitans, two strains of Actinomyces israelli and three strains of Fusobacterium nucleatum. Abbreviations in Table 3 are the same as those in Tables 1 and 2. Hydrolytic activity "+++" means "40≤release amount<80 nmol/ml" and "++++" means "release amount≥80 nmol/ml".

Actinomyces israelli [7] = assay: as above; format: cell-based; settings: two strains, Table 3
Experimental: as §2, §3, §4, §5, §6

B. gingivalis [8] = assay: as above; format: cell-based; settings: five strains, Table 3
Experimental: as §2, §3, §4, §5, §6

Fusobacterium nucleatum [9] = assay: as above; format: cell-based; settings: three strains, Table 3
Experimental: as §2, §3, §4, §5, §6

Treponema denticola [10] = assay: as above; format: cell-based; settings: four strains, Table 3
Experimental: as §2, §3, §4, §5, §6

[11] = tested on: periodontopathic bacteria specific aminopeptidase activity; assay: Hydrolytic activity of gingival crevicular fluid specimens, OD525 (Experiment 6); format: biochemical
Experimental: as §3, §4
Specimens of gingival crevicular fluid were collected with paper points from five subjects who were considered to be healthy from their clinical state, six subjects with gingivitis and six subjects with periodontitis. Each specimen was dispersed in Ringer's solution (1.5 ml), and the relative amount of spirochete to total bacteria: [formula] was determined with a phase contrast microscope. Further, the Ringer's solution (0.3 ml) was tested for hydrolytic activity using the substrate solution prepared in the same manner as described in Experiment 1. As substrates, there were used compounds of the formula [1], i.e., N-benzoylvalyl-glycyl-arginine-β-naphthylamide (BzVGR) and N-carbobenzoxy-valyl-glycyl-arginine-β-naphthylamide (CxVGR) were used.
According to the same manner as described in Experiment 4, hydrolytic activity was tested by using the compounds of the formulas and [2], i.e., glycyl-proline-βnaphthylamide (GP), N-benzoyl-arginyl-glycyl-phenylalanylproline-β-naphthylamide (BzRGFP), N-carbobenzoxy-valylglycyl-arginine-β-naphthylamide (CxVGR) and N-benzoylglycyl-arginine-β-naphthylamide (BzGR) alone or in combination. Hydrolytic activity was determined by measuring absorption at 525 nm (OD525) and expressed as follows.

NCCCC[C@H](NC(=O)OCc1ccccc1)C(=O)N1CCC[C@H]1C(=O)Nc1ccc2ccccc2c1 [CxKP, N-carbobenzoxy-lysyl-proline-β-naphthylamide] (Cbz-Lys-Pro-βNA)
hydrolytic activity (average amount of released β-naphthylamine) [1]: - (release amount<5 nmol/ml) | hydrolytic activity (average amount of released β-naphthylamine) (Actinomyces israelli [2]): - (release amount<5 nmol/ml) | hydrolytic activity (average amount of released β-naphthylamine) (B. corporis): ++ (20 ≤release amount<40 nmol/ml) | hydrolytic activity (average amount of released β-naphthylamine) (B. denticola): ++ (20 ≤release amount<40 nmol/ml) | hydrolytic activity (average amount of released β-naphthylamine) (B. gingivalis [3]): ++ (20 ≤release amount<40 nmol/ml) | hydrolytic activity (average amount of released β-naphthylamine) (B. intermedius): ++ (20 ≤release amount<40 nmol/ml) | hydrolytic activity (average amount of released β-naphthylamine) (B. melaninogenicus): ++ (20 ≤release amount<40 nmol/ml) | hydrolytic activity (average amount of released β-naphthylamine) (Fusobacterium nucleatum [4]): - (release amount<5 nmol/ml) | hydrolytic activity (average amount of released β-naphthylamine) (Treponema denticola [5]): + (10 ≤release amount<20 nmol/ml) | hydrolytic activity (release amount) [6]: - (release amount<5 nmol/ml) | hydrolytic activity (release amount) (Actinomyces israelli [7]): - (release amount<5 nmol/ml) | hydrolytic activity (release amount) (B. gingivalis [8]): ++ (20 ≤release amount<40 nmol/ml) | hydrolytic activity (release amount) (Fusobacterium nucleatum [9]): - (release amount<5 nmol/ml) | hydrolytic activity (release amount) (Treponema denticola [10]): + (10 ≤release amount<20 nmol/ml)

NCC(=O)N1CCC[C@H]1C(=O)Nc1ccc2ccccc2c1 [GP, glycyl-proline-β-naphthylamide] (H-Gly-Pro-βNA)
hydrolytic activity (average amount of released β-naphthylamine) [1]: - (release amount<5 nmol/ml) | hydrolytic activity (average amount of released β-naphthylamine) (Actinomyces israelli [2]): - (release amount<5 nmol/ml) | hydrolytic activity (average amount of released β-naphthylamine) (B. corporis): ++ (20 ≤release amount<40 nmol/ml) | hydrolytic activity (average amount of released β-naphthylamine) (B. denticola): - (release amount<5 nmol/ml) | hydrolytic activity (average amount of released β-naphthylamine) (B. gingivalis [3]): +++ (release amount≥40 nmol/ml) | hydrolytic activity (average amount of released β-naphthylamine) (B. intermedius): + (10 ≤release amount<20 nmol/ml) | hydrolytic activity (average amount of released β-naphthylamine) (B. melaninogenicus): ++ (20 ≤release amount<40 nmol/ml) | hydrolytic activity (average amount of released β-naphthylamine) (Fusobacterium nucleatum [4]): - (release amount<5 nmol/ml) | hydrolytic activity (average amount of released β-naphthylamine) (Treponema denticola [5]): ++ (20 ≤release amount<40 nmol/ml) | hydrolytic activity (release amount) [6]: - (release amount<5 nmol/ml) | hydrolytic activity (release amount) (Actinomyces israelli [7]): - (release amount<5 nmol/ml) | hydrolytic activity (release amount) (B. gingivalis [8]): +++ (40≤release amount<80 nmol/ml) | hydrolytic activity (release amount) (Fusobacterium nucleatum [9]): - (release amount<5 nmol/ml) | hydrolytic activity (release amount) (Treponema denticola [10]): ++ (20 ≤release amount<40 nmol/ml) | hydrolytic activity, absorption at 525 nm (OD525) ([11]; Gingivitis subject 1 (spirochete 7.3 %)): + (0.1≤OD525 <0.2) | hydrolytic activity, absorption at 525 nm (OD525) ([11]; Gingivitis subject 2 (spirochete 16.7 %)): + (0.1≤OD525 <0.2) | hydrolytic activity, absorption at 525 nm (OD525) ([11]; Gingivitis subject 3 (spirochete 20.5 %)): ++ (0.2≤OD525 <0.4) | hydrolytic activity, absorption at 525 nm (OD525) ([11]; Gingivitis subject 4 (spirochete 6.8 %)): - (OD525 <0.1) | hydrolytic activity, absorption at 525 nm (OD525) ([11]; Gingivitis subject 5 (spirochete 7.3 %)): - (OD525 <0.1) | hydrolytic activity, absorption at 525 nm (OD525) ([11]; Gingivitis subject 6 (spirochete 14.4 %)): + (0.1≤OD525 <0.2) | hydrolytic activity, absorption at 525 nm (OD525) ([11]; Healthy subject 1 (spirochete 0.1 %)): - (OD525 <0.1) | hydrolytic activity, absorption at 525 nm (OD525) ([11]; Healthy subject 3 (spirochete 1.1 %)): - (OD525 <0.1) | hydrolytic activity, absorption at 525 nm (OD525) ([11]; Healthy subject 4 (spirochete 0.6 %)): - (OD525 <0.1) | hydrolytic activity, absorption at 525 nm (OD525) ([11]; Healthy subject 5 (spirochete 1.3 %)): - (OD525 <0.1) | hydrolytic activity, absorption at 525 nm (OD525) ([11]; Periodontitis subject 1 (spirochete 45.2 %)): +++ (0.4≤OD525 <0.8) | hydrolytic activity, absorption at 525 nm (OD525) ([11]; Periodontitis subject 2 (spirochete 30.3 %)): +++ (0.4≤OD525 <0.8) | hydrolytic activity, absorption at 525 nm (OD525) ([11]; Periodontitis subject 3 (spirochete 34.6 %)): +++ (0.4≤OD525 <0.8) | hydrolytic activity, absorption at 525 nm (OD525) ([11]; Periodontitis subject 4 (spirochete 21.2 %)): ++ (0.2≤OD525 <0.4) | hydrolytic activity, absorption at 525 nm (OD525) ([11]; Periodontitis subject 5 (spirochete 40.3 %)): +++ (0.4≤OD525 <0.8) | hydrolytic activity, absorption at 525 nm (OD525) ([11]; Periodontitis subject 6 (spirochete 35.1 %)): +++ (0.4≤OD525 <0.8)
